{"source": "patent US20250213560A1", "about": "“NITROGEN-CONTAINING HETEROCYCLIC COMPOUNDS HAVING PHENYL GROUP AND USES THEREOF” (BNH RESEARCH CO., LTD., priority 2022, published 2025)", "key": {"SH-SY5Y cells": {"system": "SH-SY5Y cells", "experiment": "Cytotoxicity test (CCK-8 cell viability) in SH-SY5Y cells", "format": "cell-based, human", "details": "SH-SY5Y, 0, 0.1, 1, 10, 100 μM, 24 hours", "protocol": "Human undifferentiated neuroblastoma cell line SH-SY5Y and human embryonic kidney cell line (HEK)-293T were purchased from Korean Cell Line Bank (Korea) and Takara (Japan), respectively. Cells were grown in HyClone Minimal Essential Medium (MEM) and Dulbecco's Modified Eagle Medium (DMEM), respectively, supplemented with 10% (v/v) fetal bovine serum (FBS), penicillin (100 U/mL), and streptomycin ([…]). Cells were maintained in a humidified atmosphere of 95% air and 5% CO2 at 37° C. Cells were passaged 10 times at maximum. Cells were dissociated using 0.05% trypsin-EDTA solution and the cells were seeded in new culture dishes for maintenance. […]\nThe time of co-incubation was 24 hours and six replicates were made for each measurement. Finally, 10 μL of CCK-8 reagent (Dojindo Laboratories, Rockville, MD) was added to each well, and after incubation at 37° C. for 3 minutes, the OD at 450 nm was measured using a multifunction microplate reader (Tecan Infinite M200 Pro). These measurements were compared to that of a control and expressed as a percentage of the control to calculate cell viability. The IC50 value was calculated using SPSS software. To do this, the absorbance of the blank wells with only growth medium is subtracted from the values or the wells with cells. […]\nThe cytotoxicity of the compound was evaluated by treating cells with BnH12003 and measuring cell viability."}, "[1]": {"system": "mouse barrel cortex (layer 4)", "experiment": "Ex vivo synaptic plasticity (TC EPSC potency, GABA/AMPA ratio) in barrel cortex after in vivo administration", "details": "C57BL/6J mice", "description": "Eight weeks old male C57BL/6J mice were anesthetized with isoflurane during surgery. The mice were then be placed in a stereotaxic frame (RWD Life Science, China). The parietal and the frontal bones were exposed by a sagittal incision of the scalp at the midline from the level of the eyes to the occipital protuberance. A small burr hole was drilled after exposing the skull. The injection cannula was placed at the following coordinates: (Mouse: Bregma-3.30, lateral-1.50, and ventral 0.7 mm). Sterile saline solution (+/−a compound of the present disclosure) was perfused at a constant flow rate of […] through the injection cannula using a mini-Os pump (DURECT Corporation ALZET Osmotic Pumps, CA). Implantation was done in layer 4 of the barrel cortex ipsilateral. To estimate extent of the diffusion of the injected compound in layer 4 barrel cortex during pump injection, methylene blue was first injected to stain the diffusion area. On average methylene blue diffused to 2000.0 μm away from the injection site (the total area of the barrel cortex region is about 1500 μm). Based on this analysis, the present inventors recorded from barrel cortex area.\nThe compound was diluted to 25 mg/kg using DMSO: PEG400: Saline (5:55:40). The compound was administered intraperitoneal at 10:00 a.m. daily (i.p. volume was 200 ul) for about 11 to 12 days. Control group was also administered by i.p. injection in the same manner using the vehicle (DMSO: PEG400: Saline (5:55:40)). 5 mice were used for the compound administration group and the control group, respectively.\nFor TC or hippocampus slice preparation, 9 to 10 weeks-old male C57BL/6J mice were anesthetized with isoflurane. Then, the brain was rapidly cooled via transcardial perfusion with ice-cold sucrose-artificial cerebrospinal fluid (aCSF). The brain was removed and placed in ice-cold sucrose aCSF. Paracoronal slices were prepared at an angle of 50° relative to the midline on a ramp at an angle of 10°. Then, slices were incubated in aCSF at 35° C. for 30 minutes to recover. […]\nWhole cell recordings were made using a multiclamp 700A (Molecular devices, Sunnyvale, CA)digitized at 10 kHz and filtered at 2 kHz. Input resistance and series resistance were monitored continuously during recordings, as previously described (see Isaac, Crair, Nicoll, & Malenka, 1997, Silent synapses during development of thalamocortical inputs, DOI: 10.1016/s0896-6273 (00) 80267-6).\nFor the minimal stimulation protocol (Potency), VB thalamic stimulation intensity was adjusted to find the lowest intensity that elicited a mixture of synaptic responses and failures. Failure rate was calculated as the number of failures/total number of trials. […]"}, "[2]": {"details": "Os pump, 3 μM continuously for 2 weeks, barrel cortex layer 4"}, "[3]": {"details": "intraperitoneal 25 mg/kg once a day for about 11 or 12 days"}}}
{"compound": "C[C@H]1CC[C@@H](C(=O)O)CN1C(=O)Cc1ccc(-c2cncnc2)cc1", "note": "[BnH12003, (3R,6S)-6-methyl-1-(2-(4-(pyrimidin-5-yl)phenyl)acetyl) piperidine-3-carboxylic acid]", "values": [{"measurement": "cell viability", "setting": "SH-SY5Y cells", "value": "no significant change in cell viability"}, {"measurement": "GABA/AMPA ratio (balance of excitation/inhibition)", "setting": "[1]; [2]", "value": "balance of excitation/inhibition was maintained"}, {"measurement": "excitatory TC synaptic potency (TC potency)", "setting": "[1]; [2]", "value": "significantly increased"}, {"measurement": "GABA/AMPA ratio (balance of excitation/inhibition)", "setting": "[1]; [3]", "value": "maintaining the balance of excitation/inhibition"}, {"measurement": "TC synaptic potency in the sensory cortex", "setting": "[1]; [3]", "value": "increase TC synaptic potency"}]}
